Test results published in patent publication US20110002843A1, “METHOD OF DETECTING MYOCARDIAL DYSFUNCTION IN PATIENTS HAVING A HISTORY OF ASTHMA OR BRONCHOSPASM” (priority 2005, published 2011).
Where two headings read alike, the source gives them in different places.

Experiments:
[1] = Single-dose pharmacokinetics, safety and tolerability of 10-minute intravenous infusion in healthy volunteers; format: in vivo, human; conditions: for Cmax / Tmax / AUC(0-inf) / AUC(0-t) / clearance / half-life / Vd: human, plasma; for Cmax: read-out: Cmax, mean (SD); for AUC(0-inf): read-out: AUC0-∞, mean (SD) (converted); for AUC(0-t): read-out: AUClast, mean (SD) (converted); for Vd: read-out: Vz, mean (SD)
Description: Subjects: This study was conducted at the New Orleans Center for Clinical Research, New Orleans, La., in accordance with US Good Clinical Practice guidelines. Subjects were required to be in generally good health as determined by physical examination and laboratory testing, as well as assessment of vital signs. Exclusion criteria included testing positive on drug screening (drugs of abuse); ingesting caffeine, alcohol, or medication within 24 hours of study entry; or receiving an investigational drug with 30 days of study entry. Women of childbearing potential and men whose female partners were not using an acceptable contraceptive method were excluded. Other exclusion criteria included subjects with known postural hypotension, resting supine systolic blood pressure of 90 mmHg or lower, diastolic blood pressure of 60 mmHg or lower and heart rate of 90 beats/min or greater; history of human immunodeficiency virus infection; positive test result for hepatitis B surface antigen or hepatitis C antibody; and any clinically relevant condition that could potentially confound the analysis or present a safety risk.
Study Methods: The study was designed as a single-center, open-label, nonrandomized, intravenous dose-escalation study in 4 cohorts (n=6 each) of healthy volunteers. The protocol was approved by the institutional review board; all subjects gave written informed consent. Subjects from each cohort were to receive 3 rising doses of binodenoson administered via intravenous infusion over a period of 10 minutes, at a rate not to exceed 6 μg/kg/min. Although the successive doses of binodenoson were administered on the same study day, the washout period between doses was at least 2 hours. Subjects in cohort 1 received consecutive binodenoson doses of 0.1, 0.2 and 0.4 μg/kg; cohort 2 received 0.6, 1 and 2 μg/kg; cohort 3 received 2, 3 and 4 μg/kg; and cohort 4 received 4, 5 and 6 μg/kg.
Serial vital sign monitoring of heart rate, supine systolic blood pressure and diastolic blood pressure was done at screening and during each dosing phase within 10 minutes before infusion, at 2, 4, 6, 8 and 10 minutes during infusion and at 2, 5, 7.5, 10, 15, 20, 30, 45, 60, 90 and 120 minutes after infusion. A 12-lead electrocardiogram (ECG) was obtained at screening and the end of the study. The ECG was monitored via telemetry during the treatment phase, including during the infusions. Monitoring was initiated within 1 hour before dosing and continued until 24 hours after completion of the last dose.
A total of 40 to 42 blood samples were collected during the treatment phase for quantitation of binodenoson in plasma. Before dosing, a polyethylene catheter was inserted into a vein of the forearm contralateral to the infusion site. Blood samples (5 mL) were drawn into prechilled Vacutainer tubes (BD, Franklin Lakes, N.J.) just before infusion (−1 minute), at the midpoint (5 minutes) and end (10 minutes) of infusion and at 2, 5, 7.5, 10, 15, 20, 30, 45, 60, 90 and 120 minutes after the end of infusion. Plasma was separated from cellular material by centrifugation under refrigeration (4° C.) at 4000 rpm for 10 minutes and then stored in cryotubes at −80° C. until analyzed. The total amount of blood taken during the intensive sampling period was approximately 200 mL. Plasma concentrations of binodenoson were determined by a validated high-performance liquid chromatography-mass spectrometry (LC/MS/MS) assay at Phoenix International, Inc. (Montreal, Quebec, Canada).
Pharmacokinetic parameters were derived for each subject's plasma binodenoson concentration-time profile for each binodenoson infusion by use of noncompartmental methods with the statistical software program SAS (SAS Institute, Cary, N.C.). The peak concentration (Cmax) and corresponding time to (Cmax) (tmax) were derived by observation. […]

[2] = Isolated and denervated atrial preparations, rate
[3] = tested on: β-adrenergic receptors; assay: Affinity for β-adrenergic receptors; format: binding
[4] = tested on: muscarinic receptors; assay: Affinity for muscarinic receptors; format: binding
[5] = 0.4 ug/kg, 0.4 μg/kg iv over 10 minutes
[6] = 0.6 ug/kg, 0.6 μg/kg iv over 10 minutes
[7] = 1 ug/kg, 1 μg/kg iv over 10 minutes
[8] = 2 ug/kg, 2 μg/kg iv over 10 minutes
[9] = 3 ug/kg, 3 μg/kg iv over 10 minutes
[10] = 4 ug/kg, 4 μg/kg iv over 10 minutes
[11] = 6 ug/kg, 6 μg/kg iv over 10 minutes
[12] = 8 ug/kg, 8 μg/kg iv over 10 minutes

SMILES: Nc1nc(N/N=C/C2CCCCC2)nc2c1ncn2[C@@H]1O[C@H](CO)[C@@H](O)[C@H]1O (stereo in doubt) [Binodenoson, 2-{2-[(Cyclohexyl)methylene]hydrazino}adenosine]
- maximum increase in heart rate ([1]; 1 μg/kg dose): 29 beats/min
- mean maximal increase in systolic blood pressure from baseline ([1]; 1 μg/kg dose): 8.8 mmHg
- maximum increase in heart rate ([1]; 6 μg/kg dose): 66.3 beats/min
- mean maximal increase in systolic blood pressure from baseline ([1]; 6 μg/kg dose): 27.9 mmHg
- volunteers reporting at least 1 AE ([1]; 21 of 24 volunteers): 83%
- AEs judged related to administration of binodenoson ([1]; all doses): 99%
- AEs of mild severity ([1]; all doses): 82%
- AEs of moderate severity ([1]; all doses): 17%
- AEs that began during drug infusions and resolved within 30 minutes of onset ([1]; all doses): 75%
- ECG changes ([1]; all doses): no clinically significant ECG changes
- serious AEs ([1]; all doses): no serious AEs
- frequency of dizziness ([1]; doses of 1 μg/kg or lower): 0%
- frequency of headache ([1]; doses of 1 μg/kg or lower): 7%
- frequency of nausea/vomiting ([1]; doses of 1 μg/kg or lower): 0%
- frequency of paresthesia ([1]; doses of 1 μg/kg or lower): 3%
- frequency of vasodilation ([1]; doses of 1 μg/kg or lower): 14%
- frequency of dizziness ([1]; doses of 2 μg/kg or greater): 24%
- frequency of headache ([1]; doses of 2 μg/kg or greater): 60%
- frequency of nausea/vomiting ([1]; doses of 2 μg/kg or greater): 49%
- frequency of paresthesia ([1]; doses of 2 μg/kg or greater): 19%
- frequency of vasodilation ([1]; doses of 2 μg/kg or greater): 54%
- tolerability ([1]; doses ranging from 0.4 μg/kg to 6 μg/kg): well tolerated
- Cmax [1, 5]: 0.9 ng/mL
- Cmax [1, 6]: 1.1 ng/mL
- Cmax [1, 7]: 2.1 ng/mL
- Cmax [1, 8]: 3.9 ng/mL
- Cmax [1, 9]: 6.2 ng/mL
- Cmax [1, 10]: 8.7 ng/mL
- Cmax [1, 11]: 12.5 ng/mL
- Cmax [1, 12]: 12.1 ng/mL
- Tmax [1, 5]: 10 min
- AUC(0-inf) [1, 5]: 0.207 ng·h/mL
- AUC(0-t) [1, 5]: 0.15 ng·h/mL
- clearance ([1]; 0.4 ug/kg, 0.4 μg/kg iv over 10 minutes, read-out: CL, mean (SD)): 33.4 mL/min/kg
- half-life ([1]; 0.4 ug/kg, 0.4 μg/kg iv over 10 minutes, read-out: T1/2, mean (SD)): 8.8 min
- Vd [1, 5]: 0.39 L/kg
- Tmax [1, 6]: 7.5 min
- AUC(0-inf) [1, 6]: 0.353 ng·h/mL
- AUC(0-t) [1, 6]: 0.208 ng·h/mL
- clearance ([1]; 0.6 ug/kg, 0.6 μg/kg iv over 10 minutes, read-out: CL, mean (SD)): 28.8 mL/min/kg
- half-life ([1]; 0.6 ug/kg, 0.6 μg/kg iv over 10 minutes, read-out: T1/2, mean (SD)): 11.7 min
- Vd [1, 6]: 0.46 L/kg
- Tmax [1, 7]: 10 min
- AUC(0-inf) [1, 7]: 0.465 ng·h/mL
- AUC(0-t) [1, 7]: 0.415 ng·h/mL
- clearance ([1]; 1 ug/kg, 1 μg/kg iv over 10 minutes, read-out: CL, mean (SD)): 38.3 mL/min/kg
- half-life ([1]; 1 ug/kg, 1 μg/kg iv over 10 minutes, read-out: T1/2, mean (SD)): 7.4 min
- Vd [1, 7]: 0.4 L/kg
- Tmax [1, 8]: 10 min
- AUC(0-inf) [1, 8]: 0.928 ng·h/mL
- AUC(0-t) [1, 8]: 0.855 ng·h/mL
- clearance ([1]; 2 ug/kg, 2 μg/kg iv over 10 minutes, read-out: CL, mean (SD)): 33 mL/min/kg
- half-life ([1]; 2 ug/kg, 2 μg/kg iv over 10 minutes, read-out: T1/2, mean (SD)): 10 min
- Vd [1, 8]: 0.48 L/kg
- Tmax [1, 9]: 9.5 min
- AUC(0-inf) [1, 9]: 1.42 ng·h/mL
- AUC(0-t) [1, 9]: 1.31 ng·h/mL
- clearance ([1]; 3 ug/kg, 3 μg/kg iv over 10 minutes, read-out: CL, mean (SD)): 35.4 mL/min/kg
- half-life ([1]; 3 ug/kg, 3 μg/kg iv over 10 minutes, read-out: T1/2, mean (SD)): 12.8 min
- Vd [1, 9]: 0.65 L/kg
- Tmax [1, 10]: 10 min
- AUC(0-inf) [1, 10]: 2.03 ng·h/mL
- AUC(0-t) [1, 10]: 1.93 ng·h/mL
- clearance ([1]; 4 ug/kg, 4 μg/kg iv over 10 minutes, read-out: CL, mean (SD)): 39.8 mL/min/kg
- half-life ([1]; 4 ug/kg, 4 μg/kg iv over 10 minutes, read-out: T1/2, mean (SD)): 13 min
- Vd [1, 10]: 0.69 L/kg
- Tmax [1, 11]: 9 min
- AUC(0-inf) [1, 11]: 2.32 ng·h/mL
- AUC(0-t) [1, 11]: 2.22 ng·h/mL
- clearance ([1]; 6 ug/kg, 6 μg/kg iv over 10 minutes, read-out: CL, mean (SD)): 33.9 mL/min/kg
- half-life ([1]; 6 ug/kg, 6 μg/kg iv over 10 minutes, read-out: T1/2, mean (SD)): 14.9 min
- Vd [1, 11]: 0.7 L/kg
- Tmax [1, 12]: 10.5 min
- AUC(0-inf) [1, 12]: 2.72 ng·h/mL
- AUC(0-t) [1, 12]: 2.6 ng·h/mL
- clearance ([1]; 8 ug/kg, 8 μg/kg iv over 10 minutes, read-out: CL, mean (SD)): 39.5 mL/min/kg
- half-life ([1]; 8 ug/kg, 8 μg/kg iv over 10 minutes, read-out: T1/2, mean (SD)): 12.3 min
- Vd [1, 12]: 0.68 L/kg
- clearance ([1]; intravenous, across all dose levels, read-out: mean systemic clearance): 34.4 ± 7.5 mL/min/kg
- half-life ([1]; intravenous, across all doses, read-out: terminal half-life, harmonic mean): 10 ± 4 min
- relationship between clearance (CL) and body weight (BW) ([1]; linear mixed-effect model, p=0.004): CL=−0.19+0.039 BW
- AUC0-t as share of total AUC0-∞ ([1]; trapezoidal rule): greater than 80%
- atrial rate [2]: did not increase the rate
- affinity [3]: no affinity
- affinity [4]: no affinity
